In PMC8462401 (Blood, 2021) one finds IC50 and inhibition data, which are given here for one compound.

One test has as its target T1, MER (Homo sapiens, UniProt Q12866).
T1 sequence (Q12866 21-999): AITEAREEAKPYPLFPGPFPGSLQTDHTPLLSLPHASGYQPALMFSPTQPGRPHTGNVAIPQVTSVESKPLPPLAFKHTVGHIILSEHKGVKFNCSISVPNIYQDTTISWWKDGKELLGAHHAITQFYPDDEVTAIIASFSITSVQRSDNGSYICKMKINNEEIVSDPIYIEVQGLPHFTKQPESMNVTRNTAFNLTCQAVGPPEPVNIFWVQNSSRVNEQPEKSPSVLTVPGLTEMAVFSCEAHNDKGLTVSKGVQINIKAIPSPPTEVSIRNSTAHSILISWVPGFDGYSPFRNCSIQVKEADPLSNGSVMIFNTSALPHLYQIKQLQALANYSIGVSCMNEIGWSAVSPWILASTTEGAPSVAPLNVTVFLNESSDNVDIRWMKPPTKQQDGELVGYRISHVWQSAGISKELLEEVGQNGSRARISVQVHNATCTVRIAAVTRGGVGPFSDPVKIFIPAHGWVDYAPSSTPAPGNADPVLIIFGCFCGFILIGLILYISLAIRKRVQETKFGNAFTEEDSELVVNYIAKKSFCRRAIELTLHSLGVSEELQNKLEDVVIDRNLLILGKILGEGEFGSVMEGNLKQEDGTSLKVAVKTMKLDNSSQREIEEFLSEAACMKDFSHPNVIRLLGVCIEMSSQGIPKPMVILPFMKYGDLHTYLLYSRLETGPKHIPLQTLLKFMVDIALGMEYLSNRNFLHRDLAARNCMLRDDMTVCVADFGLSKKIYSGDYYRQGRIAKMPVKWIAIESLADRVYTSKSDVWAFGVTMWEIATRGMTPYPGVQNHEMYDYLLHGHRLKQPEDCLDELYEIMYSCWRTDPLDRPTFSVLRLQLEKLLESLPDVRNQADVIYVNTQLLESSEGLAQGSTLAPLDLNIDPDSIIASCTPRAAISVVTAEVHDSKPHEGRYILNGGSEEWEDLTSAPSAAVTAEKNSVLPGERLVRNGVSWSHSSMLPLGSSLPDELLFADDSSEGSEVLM
Briefly: radiometric kinase assay at ATP Km. The test is classed as biochemical.

Test [1] concerns the target vascular endothelial growth factor receptor 1 (Homo sapiens, UniProt P17948). Description: BaF3 panel of […] receptor tyrosine kinases, […] inhibition at […]. The test is classed as cell-based. The note with it: BaF3, read-out: % inhibition at 100 nM.
A further test has as its target FGFR3 (Homo sapiens, UniProt P22607). The test is described as above. The test is classed as cell-based. The note with it: BaF3, read-out: % inhibition at 100 nM.

Chain of vascular endothelial growth factor receptor 1 (P17948 27-1338): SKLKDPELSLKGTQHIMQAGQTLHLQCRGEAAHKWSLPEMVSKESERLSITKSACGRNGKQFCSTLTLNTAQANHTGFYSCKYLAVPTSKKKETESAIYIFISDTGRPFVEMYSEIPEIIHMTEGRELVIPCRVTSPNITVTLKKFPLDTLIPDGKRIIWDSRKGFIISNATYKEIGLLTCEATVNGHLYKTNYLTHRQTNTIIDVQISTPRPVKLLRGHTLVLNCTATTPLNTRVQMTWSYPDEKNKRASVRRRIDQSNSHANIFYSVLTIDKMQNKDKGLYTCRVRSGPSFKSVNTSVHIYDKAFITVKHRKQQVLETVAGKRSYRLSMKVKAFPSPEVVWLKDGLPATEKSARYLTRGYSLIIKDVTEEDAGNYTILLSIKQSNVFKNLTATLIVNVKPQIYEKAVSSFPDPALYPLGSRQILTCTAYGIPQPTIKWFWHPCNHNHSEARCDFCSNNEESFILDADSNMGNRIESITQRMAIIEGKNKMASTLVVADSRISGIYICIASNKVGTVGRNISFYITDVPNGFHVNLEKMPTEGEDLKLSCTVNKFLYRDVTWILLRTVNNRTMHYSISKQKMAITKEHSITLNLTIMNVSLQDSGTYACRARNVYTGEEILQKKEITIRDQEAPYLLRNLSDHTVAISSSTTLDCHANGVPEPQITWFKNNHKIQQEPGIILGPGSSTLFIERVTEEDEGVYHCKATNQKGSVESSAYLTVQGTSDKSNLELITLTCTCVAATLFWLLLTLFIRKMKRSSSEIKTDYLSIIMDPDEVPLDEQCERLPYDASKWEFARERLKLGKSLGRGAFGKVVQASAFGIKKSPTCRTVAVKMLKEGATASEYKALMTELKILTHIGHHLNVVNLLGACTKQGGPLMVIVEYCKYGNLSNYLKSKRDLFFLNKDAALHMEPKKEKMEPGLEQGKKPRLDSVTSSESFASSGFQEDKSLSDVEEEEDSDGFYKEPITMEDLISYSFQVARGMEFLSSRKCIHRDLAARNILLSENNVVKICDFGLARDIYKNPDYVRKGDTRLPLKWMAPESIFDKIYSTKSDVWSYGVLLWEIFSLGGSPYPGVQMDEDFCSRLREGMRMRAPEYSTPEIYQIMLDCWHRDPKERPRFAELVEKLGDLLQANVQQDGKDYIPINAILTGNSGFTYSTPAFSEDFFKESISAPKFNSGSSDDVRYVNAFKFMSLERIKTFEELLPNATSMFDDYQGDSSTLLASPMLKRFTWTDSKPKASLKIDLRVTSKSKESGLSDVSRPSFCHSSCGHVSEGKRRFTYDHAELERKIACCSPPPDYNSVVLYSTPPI
Chain of FGFR3 (P22607 23-806): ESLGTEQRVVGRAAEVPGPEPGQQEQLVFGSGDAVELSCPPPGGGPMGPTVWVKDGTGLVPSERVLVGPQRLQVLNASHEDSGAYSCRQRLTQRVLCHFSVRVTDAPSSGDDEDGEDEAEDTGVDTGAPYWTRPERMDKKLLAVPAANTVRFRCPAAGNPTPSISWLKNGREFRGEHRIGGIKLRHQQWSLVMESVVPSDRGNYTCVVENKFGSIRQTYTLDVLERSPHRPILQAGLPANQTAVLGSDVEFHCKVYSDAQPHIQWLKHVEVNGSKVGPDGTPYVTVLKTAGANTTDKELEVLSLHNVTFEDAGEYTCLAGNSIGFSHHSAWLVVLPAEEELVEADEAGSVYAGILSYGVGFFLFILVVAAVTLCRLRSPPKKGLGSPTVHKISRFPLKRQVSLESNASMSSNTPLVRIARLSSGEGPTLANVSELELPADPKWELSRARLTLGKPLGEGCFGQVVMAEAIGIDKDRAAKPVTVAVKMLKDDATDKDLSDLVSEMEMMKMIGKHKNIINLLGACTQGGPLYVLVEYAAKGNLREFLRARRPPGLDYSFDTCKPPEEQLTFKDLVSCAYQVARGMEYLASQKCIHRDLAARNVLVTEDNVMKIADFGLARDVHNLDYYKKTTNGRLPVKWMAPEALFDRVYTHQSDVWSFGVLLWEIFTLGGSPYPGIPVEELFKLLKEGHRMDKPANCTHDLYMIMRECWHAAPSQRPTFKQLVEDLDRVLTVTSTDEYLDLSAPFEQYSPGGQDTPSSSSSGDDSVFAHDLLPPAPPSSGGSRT

`Nc1ncc(-c2cnn(C3CCNCC3)c2)cc1-c1nnc(CC2CC2)o1` [SLC-391, 3-(5-(cyclopropylmethyl)-1,3,4-oxadiazole-2-yl)-5-(1-(piperidine-4-yl)-1H-pyrazole-4-yl)pyridine-2-amine] returned an IC50 against MER of 44 nM. In addition, the inhibition at 0.1 µM (in test [1]; at FGFR3) was 60% each time.
